Results on four compounds are retold here after US20210290527A1, “Compositions and Methods for Treatment of Ocular Conditions” (EyeGate Pharmaceuticals, Inc., priority 2020, published 2021).

Structures are written as SMILES. Read-outs that look alike come from different tables or passages of the source.

A short description of series [1]: pH measured with a pH meter. The class given is physicochemical. Here is the method:
(§1) RI was measured with a refractometer and pH was measured with a pH meter.

The procedure of series [2]:
as §1

The conditions of series [3]: in water; cited from earlier work.
Series [4] can be described thus: Rheological testing, parallel plate rheometer: viscosity and shear-thinning. The class given is physicochemical. As for the experimental part:
Thiol-modified carboxymethyl HA (CMHA-S) was synthesized as described in Lawyer et al. and Wendling et al., with a thiol modification of 0.1, 0.2, 0.4, or 0.7 μmol thiol/mg. Hydrogels were created by dissolving CMHA-S in phosphate-buffered saline (PBS; pH 7.4). The CMHA-S was disulfide crosslinked under continuous mixing with the addition of sodium hypochlorite. Rheological testing was performed using a parallel plate format rheometer with a 25 mm-diameter stainless steel geometry. Samples (5-6 ml) of hydrogel were placed in a 35 mm Petri dish, and the geometry was lowered to a gap of 5 mm. To determine viscosity and shear-thinning, the shear rate was varied from 0.1 to 10 Hz. A decreasing viscosity as shear rate increases indicates shear-thinning behavior.
Viscosity was determined as described in Example 1.

Series [5] in a line: Release of therapeutic from hydrogel in medi-dialysis chamber into PBS. The class given is physicochemical. The conditions noted are these: therapeutic at 1 mg/ml, over 24 hours, dialysis chamber MWCO 50 kDa, UV spectroscopy. As for the experimental part:
FIGS. 3A, 3B, 3C, and 3D show the release of therapeutic from hydrogel (“OBG”; blue circles on the graphs) or PBS (green circles on the graphs) into PBS in a medi-dialysis chamber (MWCO, 50 kDa) over time.
The release was monitored over 24 hours and compared to release of the therapeutic from solution in PBS. For this assessment, a 0.5 ml sample of hydrogel plus therapeutic or PBS plus therapeutic was placed into a medi-dialysis chamber, and the chamber was placed in a beaker containing 100 ml of PBS. The remaining amount of therapeutic in the dialysis chamber was monitored using UV spectroscopy at various time points.

[6] abbreviates: drug incorporated at 1 mg/ml in CMHA-S hydrogel.
The mark [7] stands for this setting: PredA 1 mg/ml in CMHA-S hydrogel.
[8] abbreviates: PredA 5 mg/ml in CMHA-S hydrogel.
[9] abbreviates: PredA 10 mg/ml in CMHA-S hydrogel.
Where [10] appears, read: LE 2.5 mg/ml in CMHA-S hydrogel.

In series [1] (setting [6]), `CN(C)CC/C=C1/c2ccccc2COc2ccc(CC(=O)O)cc21` [Olopatadine, olopatadine] registered a pH of 7.3. Further, the RI in series [2] (setting [6]) is recorded as 1.3353. In addition, the water solubility result in series [3] is “about 0.03 mg/ml”. In addition, the “Viscosity at 2.5 Hz” value in series [4] (setting [6]) was found to be 1.1 Pa · s.
Turning to `CC(=O)OCC(=O)[C@@]1(O)CC[C@H]2[C@@H]3CCC4=CC(=O)C=C[C@]4(C)[C@H]3[C@@H](O)C[C@@]21C` [PredA, prednisolone acetate], the pH in series [1] (setting [7]) came to 7.09; in series [1] (setting [8]), 7.13; in series [1] (setting [9]), 7.17. Besides, the entries for the “Viscosity at 2.5 Hz” value in series [4] (setting [7]), in series [4] (setting [8]) and in series [4] (setting [9]) were 2.0 Pa · s, 2.7 Pa · s and 3.0 Pa · s, respectively.
In the case of `C[C@@H]1C[C@H]2[C@@H]3CCC4=CC(=O)C=C[C@]4(C)[C@@]3(F)[C@@H](O)C[C@]2(C)[C@@]1(O)C(=O)CO` [Dexamethasone, dexamethasone], the water solubility entry in series [3] is “less than 0.09 mg/ml”.
With `CCOC(=O)O[C@]1(C(=O)OCCl)CC[C@H]2[C@@H]3CCC4=CC(=O)C=C[C@]4(C)[C@H]3[C@@H](O)C[C@@]21C` [LE, loteprednol etabonate], the pH is listed as 7.11 in series [1] (LE 1 mg/ml in CMHA-S hydrogel), 7.24 in series [1] (setting [10]) and 7.55 in series [1] (LE 5 mg/ml in CMHA-S hydrogel). Further, in series [5], the “release from the hydrogel compared to release from PBS” value is “reduced compared to its release from PBS”. For the same compound, the RI was 1.3355 in series [2] (LE 1 mg/ml in CMHA-S hydrogel), 1.3354 in series [2] (setting [10]) and 1.3353 in series [2] (LE 5 mg/ml in CMHA-S hydrogel). For the same compound, in series [3], the water solubility result is reported as “less than 0.001 mg/ml”. Moreover, the “Viscosity at 2.5 Hz” value in series [4] (LE 1 mg/ml in CMHA-S hydrogel) was 2.3 Pa · s; in series [4] (setting [10]) it was 2.7 Pa · s; in series [4] (LE 5 mg/ml in CMHA-S hydrogel), 3.3 Pa · s.
